# Test results as given in US20250154169A1, “COMPOUNDS AND METHODS FOR MODULATING SPLICING” (REMIX THERAPEUTICS INC., priority 2021, published 2025).
# pIC50: −log10 of the molar value.
# Columns and labels:
# HTT mRNA = experiment: Splicing RT-qPCR assay, HTT canonical (CJ) and alternative (AJ) junction mRNA; assay type: cell-based, human; settings: Homo sapiens, A673 or K562 cells, 24 hours compound treatment; for pIC50: 24 h, read-out: HTT CJ (IC50, decrease in canonical junction mRNA); for AC50: read-out: HTT AJ (AC50, increase in alternative junction mRNA)
# Method in brief: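 Canonical (CJ) and alternative-exon (AJ) junction mRNAs quantified by one-step RT-qPCR in cell lysates, normalized to housekeeping PPIA for A673 and GAPDH or GUSB for K562. Cells were exposed 24 h at 37 °C to 11-point 3-fold compound series from 10 uM final, with DMSO at or below 0.25%.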
# MYB = experiment: Protein abundance, HiBit-assay system (Promega), MYB; assay type: cell-based; settings: Table 6; HiBiT-modified K562 cells, 24 hours
# Description: In some embodiments, a compound of Formula (I) or (II) or a pharmaceutically acceptable salt thereof, e.g., as described herein, modulates the expression of a target protein (e.g., HTT or MYB) in a reference cell or sample. In an embodiment, a compound of Formula (I) or (II) or a pharmaceutically acceptable salt thereof, e.g., as described herein, increases the expression of a target protein (e.g., HTT or MYB) in a reference cell or sample. In an embodiment, a compound of Formula (I) or (II) or a pharmaceutically acceptable salt thereof, e.g., as described herein, decreases the expression of a target protein (e.g., HTT or MYB) in a reference cell or sample. The effect of an exemplary compound of Formula (I) or (II) on protein abundance may be measured using a standard assay for measuring protein abundance, such as the HiBit-assay system (Promega). In this assay, percent response for each respective cell line may be as calculated at each compound concentration as follows: % response=100*(S−PC)/(NC−PC). For the normalized response at each concentration, a four-parameter logistical regression may be fit to the data and the response may be interpolated at the 50% value to determine a concentration for protein abundance at 50% (IC50) an untreated control. In an embodiment, a compound of Formula (I) or (II) or a pharmaceutically acceptable salt thereof, e.g., as described herein, has a protein abundance response less than 100 nM. In an embodiment, a compound of Formula (I) or (II) or a pharmaceutically acceptable salt thereof, e.g., as described herein, has a protein abundance response between 100-1000 nM. In an embodiment, a compound of Formula (I) or (II) or a pharmaceutically acceptable salt thereof, e.g., as described herein, has a protein abundance response greater than 1000 nM. In an embodiment, a compound of Formula (I) or (II) or a pharmaceutically acceptable salt thereof, e.g., as described herein, has a protein abundance response greater than 10 uM. In an embodiment, a compound of Formula (I) or (II) or a pharmaceutically acceptable salt thereof, e.g., as described herein, modulates the protein abundance of a target protein by about 1%, 5%, 10%, 15%, 20%, 25%, 30%, 35%, 40%, 45%, 50%, 55%, 60%, 65%, 70%, 75%, 80%, 85%, 90%, 95%, 99% or more, e.g., compared with a reference compound.
pIC50 (HTT mRNA),pIC50 (MYB),SMILES,AC50 (HTT mRNA) [µM]
6.00 to 7.00,> 7.00,"Cc1cn2cc(NC(=O)c3c(F)cc(N4CC[C@@H](NC5CC5)C4)c4cn(C)nc34)cc(F)c2n1 [Compound 571, 4-[(3R)-3-(cyclopropylamino)pyrrolidin-1-yl]-6-fluoro-N-{8-fluoro-2-methylimidazo[1,2-a]pyridin-6-yl}-2-methylindazole-7-carboxamide]",0.1 to 1
< 5.00,5.00 to 6.00,"Cc1cn2cc(NC(=O)c3ccc(N4CC[C@@H](NCc5cnc(Cl)nc5)C4)c4cn(C)nc34)cc(F)c2n1 [Compound 573, 4-[(3R)-3-{[(2-chloropyrimidin-5-yl)methyl]amino}pyrrolidin-1-yl]-N-{8-fluoro-2-methylimidazo[1,2-a]pyridin-6-yl}-2-methylindazole-7-carboxamide]",> 10
< 5.00,6.00 to 7.00,Cc1cn2cc(NC(=O)c3ccc(N4CCC(C)(NC(C)C)C4)c4cn(C)nc34)cc(F)c2n1 (stereo not drawn) [Compound 574],> 10
< 5.00,5.00 to 6.00,CCn1cc2c(N3CCNCC3)ccc(C(=O)Nc3cc(F)c4ncccc4c3)c2n1 [Compound 575],> 10
